{"source": "patent US10550091B2", "about": "“1,4,5-substituted 1,2,3-triazole analogues as antagonists of the pregnane X receptor” (ST. JUDE CHILDREN'S RESEARCH HOSPITAL, priority 2016, dated 2020)", "key": {"hPXR": {"system": "hPXR", "test": "liver CYP3A expression in hPXR-tg mice", "format": "in vivo, mouse", "conditions": "RIF 10 mg/kg plus test compound 200 mg/kg, 72 h", "procedure": "Briefly, mouse liver Cyp3a11 mRNA was analyzed by real-time PCR in hPXR-tg mice treated with vehicle control (Vehicle), RIF (10 mg/kg) or RIF (10 mg/kg) plus test compound (200 mg/kg) for 72 h. Each data point represents the level of Cyp3a11 mRNA (FIG. 3A) or protein (FIG. 3B) in an individual mouse; lines indicate the mean value for 3-7 mice per group.\nhPXR-tg mice were generated previously (Xie et al., 2000). Five mice in each group were dosed orally with vehicle control or 10 mg/kg RIF, every 24 h for three days. Eight hours after the last dose, the animals were euthanized by C02 and liver tissues were harvested. A piece of each liver was preserved in RNAlater solution (Invitrogen) at 4° C. for mRNA isolation. The remaining tissue was instantly frozen in liquid nitrogen and stored at −80° C. for total protein extraction. […]"}, "hPXR-tg mice": {"system": "hPXR-tg mice", "test": "loss of righting reflex (LORR) assay in hPXR transgenic mice", "format": "in vivo, mouse", "conditions": "RIF 10 mg/kg plus test compound 200 mg/kg every 24 h for three days", "procedure": "Loss of righting reflex (LORR) duration was recorded as described in Examples to measure metabolism of the anesthetic ([…]) in hPXR-tg, mice before and after treatment with vehicle, RIF, and RIF plus the test compound as indicated. Each data point represents LORR duration in an individual mouse; lines indicate LORR duration change in individual mouse before and after treatment. P values indicate comparison of values by paired t test.\nMice were intraperitoneally injected with 250 mg/kg of 2,2,2-tribromoethanol, which is metabolically cleared only via mouse CYP3A11. After the mice lost their righting reflex, they were placed on their backs under a heat lamp. The duration of LORR was measured as the time from the start of LORR to recovery (i.e., when mice could right themselves after being placed on their backs twice within 1 min). A baseline LORR duration was established for each mouse at the administered dose of 2,2,2-tribromoethanol. […] The paired Student's t-test was used to compare LORR duration between baseline and after treatment. A P value <0.05 was considered to indicate a significant difference between compared groups."}, "[1]": {"system": "primary human hepatocytes (PHHs)", "test": "paclitaxel metabolism in primary human hepatocytes", "format": "cell-based", "conditions": "1 μM PTX with 10 μM test compound, 24 and 48 hr", "procedure": "FIGS. 1A-1D show representative data for a representative disclosed compound showing that the tested compound modulates the activity of an hPXR agonist in primary human hepatocytes (“PHHs”). […] PHHs were pretreated with DMSO (0.1%), 1.6 μM of rifampicin (RIF), 0.5 μM of paclitaxel (PTX) or 5 μM of PTX, respectively, in the absence and presence of 10 μM of the test compound. After 72 hr, PHHs then received 3.3 μM of midazolam (MDZ) treatment for 4 h. The concentrations of 1′-OH MDZ (MDZ metabolite) in the media of each pretreatment condition were determined using LC/MS/MS as described in the Examples. […] PHHs were also treated with 1 μM of PTX in the absence and presence of 10 μM of the test compound, and then the concentrations of major PTX metabolites, 3-OH PTX (by CYP3A4) and 6α-OH PTX (by CYP2C8), were determined using LC/MS/MS at 24 hr and 48 hr of treatment, respectively. The concentrations of 3-OH PTX and 6α-OH PTX are shown in FIGS. 1B and 1C, respectively.\nMidazolam and 1-OH midazolam were from BD Gentest. Midazolam-D4 maleate (internal standard, IS) was from Cerilliant; Paclitaxel and 3′-p-Hydroxypaclitaxel were from Sigma; and 6α-hydroxy Paclitaxel was from Cayman Chemical. 100 μl of reaction medium at each different time point was collected and 200 μl of acetonitrile containing IS was added. […] Calibration and quality control samples were prepared. […]"}, "CYP3A4 promoter reporter": {"system": "CYP3A4 promoter reporter", "test": "CYP3A4 promoter reporter activity in hPXR-CYP3A4-luc reporter mice (bioluminescence imaging)", "format": "in vivo, mouse", "conditions": "RIF 10 mg/kg plus test compound 150 mg/kg every 24 h for 2 days; imaging 10 h after last treatment", "description": "Individual mouse received 3 rounds of sequential treatment of vehicle control (Vehicle), RIF (10 mg/kg) and RIF (10 mg/kg) plus the test compound (150 mg/kg) every 24 h for 2 days, respectively, with a washout period of 72-hour between two rounds of treatment. The luciferase activity in these reporter mice was recorded by bioluminescence imaging 10 h after the last treatment of each round, and the induction of CYP3A4 promoter reporter activity was calculated as described in Examples. Each data point represents the induction of CYP3A4 promoter reporter activity by the treatment in an individual mouse, and dos lines indicate the CYP3A4 promoter reporter activity change in individual mouse after following round of treatment. p values are indicated between the two treatment compared by paired t test.\n10 hours after the last treatment of each round, the mice were imaged as described above. Uniform regions of interest were drawn around the liver, and total photon flux was analyzed with Living Image 3.2 software (Xenogen). The induction of CYP3A4-luc reporter activity was calculated using the imaging from the same mouse as follows: induction rate=total photon flux (after treatment)/total photon flux (before treatment)."}, "[2]": {"system": "LS 180 cells stably overexpressed hPXR", "test": "sensitization of colon cancer cells to anti-cancer drugs (viability)", "format": "cell-based, human", "conditions": "absence vs presence of 10 μM test compound, 96 h", "procedure": "FIGS. 2A-2D show representative data for a representative disclosed compound showing that the tested compound sensitizes colon cancer cells to representative anti-cancer drugs. […] LS 180 cells stably overexpressed hPXR were treated with serial dilutions of paclitaxel (PTX; see FIG. 2A), docetaxel (TXT; see FIG. 2B), vinblastine (VBL; see FIG. 2C), or vincristine (VCR; see FIG. 2D) in the absence and presence of 10 μM of the test compound as indicated for 96 h. Values of the viability of compound-treated cells were expressed as a percentage of that of DMSO-treated cells, and drug concentration is expressed in a log scale. Data at each point represents mean±SEM from quadruplicate measurements."}, "[3]": {"system": "primary human hepatocytes (PHHs)", "test": "midazolam metabolism in primary human hepatocytes after hPXR agonist pretreatment", "format": "cell-based", "conditions": "PHHs pretreated 72 hr with DMSO, 1.6 μM RIF, 0.5 or 5 μM PTX, with 10 μM test compound; then 3.3 μM MDZ 4 h", "description": "Midazolam and 1-OH midazolam were from BD Gentest. Midazolam-D4 maleate (internal standard, IS) was from Cerilliant; Paclitaxel and 3′-p-Hydroxypaclitaxel were from Sigma; and 6α-hydroxy Paclitaxel was from Cayman Chemical. 100 μl of reaction medium at each different time point was collected and 200 μl of acetonitrile containing IS was added. This solution was then vigorously mixed for 10 min and centrifuged at 10,000 rpm for 10 min. Calibration and quality control samples were prepared. 5 μl of the samples was injected onto a Waters Acquity UPLC BEH C18 column (2.1×50 mm, 1.7 μm), using a Waters Acquity UPLC system. Chromatographic separation was performed by gradient elution at a constant flow rate of 1 mL/min for 15 min. The gradient consisted of 0.1% formic acid water (mobile phase A) and methanol (mobile phase B). […] Nitrogen was applied as curtain, collision and drying gas at 60 psi. Declustering potentials, entrance potential and collision energy was as follows: 120 V, 12 V and 35 V for MDZ; 70 V, 12 V and 30 V for 1-OH MDZ; and 120 V, 12 V and 37 V for IS."}}}
{"smiles": "COc1ccc(OC)c(-n2nnc(S(=O)(=O)c3ccc(C(C)(C)C)cc3)c2C)c1", "note": "[4-((4-(tert-butyl)phenyl)sulfonyl)-1-(2,5-dimethoxyphenyl)-5-methyl-1H-1,2,3-triazole]", "values": [{"measurement": "hPXR-mediated increase in CYP3A expression (liver Cyp3a11 mRNA, CYP3A protein)", "setting": "hPXR", "value": "inhibits the hPXR-mediated increase in CYP3A expression"}, {"measurement": "RIF-induced metabolism of the anesthetic, by LORR duration", "setting": "hPXR-tg mice", "value": "significantly inhibited"}, {"measurement": "metabolism of PTX to 3-OH PTX (by CYP3A4)", "setting": "[1]", "value": "effectively blocked"}, {"measurement": "metabolism of PTX to 6α-OH PTX (by CYP2C8)", "setting": "[1]", "value": "effectively blocked"}, {"measurement": "RIF-induced expression of the reporter under the control of the CYP3A4 promoter", "setting": "CYP3A4 promoter reporter", "value": "significantly reduced"}, {"measurement": "apparent IC50 for PTX, TXT, VBL, or VCR", "setting": "[2]", "value": "significantly higher in the absence of the test compound"}, {"measurement": "metabolism of MDZ (1′-OH MDZ in the media)", "setting": "[3]", "value": "essentially blocked"}]}
